Assay results published in article PMC9368981, “The γ-Core Motif Peptides of AMPs from Grasses Display Inhibitory Activity against Human and Plant Pathogens” (International Journal of Molecular Sciences, 2022).
Where a SMILES comes first, the peptide text is derived from it.

Assays:
[1] = tested on: Cryptococcus neoformans VKM Y-2755; type: cell-based
Method: (§1) The antimicrobial activity of synthetic peptides was tested against a panel of human and plant pathogens. Among them were the yeasts Candida albicans VKM Y-2994 and Cryptococcus neoformans VKM Y-2755, the plant pathogenic bacteria Clavibacter michiganensis subsp. michiganensis VKM Ac-1403, Pseudomonas savastanoi pv. savastanoi VKM B-1546 and Pectobacterium carotovorum subsp. carotovorum VKM B-1247, and four Fusarium species (F. oxysporum VKM F-137, F. culmorum VKM F-2303, F. solani VKM F-142 and F. verticillioides VKM F-670), which cause diseases in plants and humans. The antimicrobial activity was first measured at the peptide concentration of 300 µM (Figure 3).
(§2) The antimicrobial activity of synthetic peptides was tested against the yeasts Candida albicans VKM Y-2994 and Cryptococcus neoformans VKM Y-2755, the bacteria Pseudomonas savastanoi pv. savastanoi VKM B-1546, Pectobacterium carotovorum subsp. carotovorum VKM B-1247 and Clavibacter michiganensis subsp. michiganensis VKM Ac-1403, and four Fusarium species: F. culmorum VKM F-2303, F. oxysporum VKM F-137, F. solani VKM F-142 and F. verticillioides VKM F-670. All cultures were obtained from the All-Russian Collection of Microorganisms (VKM). The details of the production and storage of cultures of microorganisms used in this study are described at the VKM Home page. Antimicrobial assays were accomplished according to the procedure described earlier. In short, yeasts were grown on the YPD-P medium and the bacteria P. carotovorum and Cl. michiganensis were cultured on a modified YPD-P medium. The Fusarium fungi were grown on potato dextrose agar at 25 °C for 7–8 days, and spores were washed off from the surface of the mycelia with sterile, distilled water. The antimicrobial activity of the peptides was measured in immunoassay microtiter plates according to the protocol of Broekaert et al.. With yeasts and bacteria, each well contained 10 µL of the tested peptide solution (final concentrations of 10–300 µM) in water, 80 µL of the medium and 10 µL of the microbial suspension. The plates were incubated at 30 °C for 24 h, and the absorbance of the suspension was measured on an Efos 9305 spectrophotometer (Sapphire, Moscow, Russia) at 594 nm. For Fusarium species, the wells of a microtiter plate were filled with 90 µL of the fungal spore suspension in half-strength potato dextrose broth at a concentration of 2000–3000 spores in 100 µL and 10 µL of aqueous solutions of peptides at final concentrations of 10–300 µM. After 38 h of incubation, the absorbance was recorded at 595 nm on a FilterMax F5 Multi-Mode Microplate Reader (Molecular Devices, San Jose, CA, USA). Antimicrobial activity is expressed in IC50 values, which show the concentration necessary for 50% inhibition of the pathogen growth; this was determined from a graph showing the activity dependence on peptide concentration.
(§3) For each pathogen, experiments on the peptide antimicrobial activity evaluation were carried out in triplicate per treatment. Mean values, standard deviations (SD), and the significance of differences (p ≤ 0.05) of the means between treatments and controls (t-test for independent variables) were determined using STATISTICA v. 6.1 software (StatSoft Inc., Tulsa, OK, USA).

[2] = tested on: Candida albicans VKM Y-2994; type: cell-based
Method: as §1, §2, §3

[3] = tested on: Pseudomonas savastanoi pv. savastanoi VKM B-1546; type: cell-based; details: peptide 10–300 µM, 30 °C, 24 h, absorbance 594 nm; from activity vs concentration graph; mean ± SD; read-out: IC50, μM Ps. savastanoi
Method: as §1, §2, §3

[4] = tested on: F. verticillioides VKM F-670; type: cell-based, Fusarium verticillioides
Method: as §1, §2, §3

Cr. neoformans cells [5] = assay: Propidium iodide staining, fluorescence microscopy; type: cell-based, Cryptococcus neoformans; details: peptide 300 µM, 30 °C, 1 h, 0.03 mM PI 15 min
Method: (§4) Their ability to disturb the integrity of pathogen membranes was assayed by staining with propidium iodide of C. albicans and Cr. neoformans cells preliminarily incubated with the peptides. The results were visualized by fluorescent microscopy and quantified by flow cytometry (Figure 5, Figure 6 and Figure 7).
(§5) Staining of yeast cells with propidium iodide in the presence of the γ-core peptides was carried out according to the protocol described earlier. C. albicans or Cr. neoformans cells (24 h culture in YPD-P at a cell concentration of 2 × 10^8/mL) were incubated with the peptide at a concentration of 300 µM at 30 °C for 1 h. After incubation, 1 mL of the cells was stained with 0.03 mM propidium iodide (Sigma, St. Louis, MO, USA). The staining proceeded for 15 min at 30 °C. The fluorescence was recorded on an AXIO Imager A1 fluorescence microscope (ZEISS, Göttingen, Germany) using a Zeiss filter set 56 HE.

Cr. neoformans cells [6] = assay: Propidium iodide penetration, flow cytometry; type: cell-based, Cryptococcus neoformans; details: 28 °C, 2 h
Method: as §4
For flow cytometry experiments with Cr. neoformans, the yeasts were grown on the YPD medium at 28 °C for 48 h. After that, the cells were centrifuged at 12,000× g for 3 min, washed with MiliQ water and incubated with the peptides dissolved in water at a concentration of 300 µM at 28 °C for 2 h. The cells were stained with propidium iodide by direct addition of the dye to the incubation medium (final concentration of 2 µg/mL) and measured on a NovoCyte Flow cytometer (Agilent, Santa Clara, CA, USA) using the channel FL2 (488 nm excitation and 585 nm emission). The sample without peptides was used as a control.

C. albicans cells = assay: Propidium iodide staining, fluorescence microscopy; type: cell-based, Candida albicans; details: peptide 300 µM, 30 °C, 1 h, 0.03 mM PI 15 min
Method: as §4, §5

[7] = tested on: Pectobacterium carotovorum subsp. carotovorum VKM B-1247; details: 300 µM peptide; modified YPD-P medium, 30 °C, 24 h, absorbance 594 nm; vs control without peptide; triplicate, mean
Method: All cultures were obtained from the All-Russian Collection of Microorganisms (VKM).
Mean values, standard deviations (SD), and the significance of differences (p ≤ 0.05) of the means between treatments and controls (t-test for independent variables) were determined using […] v. 6.1 software (StatSoft Inc., Tulsa, OK, USA).

[8] = tested on: Clavibacter michiganensis subsp. michiganensis VKM Ac-1403; assay: Growth inhibition of Cl. michiganensis in microtiter plates; type: cell-based; details: inhibition curves (Figure 4); highest tested concentration of 300 µM
Method: as §1
The antimicrobial activity of synthetic peptides was tested against the yeasts Candida albicans VKM Y-2994 and Cryptococcus neoformans VKM Y-2755, the bacteria Pseudomonas savastanoi pv. savastanoi VKM B-1546, Pectobacterium carotovorum subsp. carotovorum VKM B-1247 and Clavibacter michiganensis subsp. michiganensis VKM Ac-1403, and four Fusarium species: F. culmorum VKM F-2303, F. oxysporum VKM F-137, F. solani VKM F-142 and F. verticillioides VKM F-670. All cultures were obtained from the All-Russian Collection of Microorganisms (VKM). […] The antimicrobial activity of the peptides was measured in immunoassay microtiter plates according to the protocol of Broekaert et al.. […] The plates were incubated at 30 °C for 24 h, and the absorbance of the suspension was measured on an Efos 9305 spectrophotometer (Sapphire, Moscow, Russia) at 594 nm. […] After 38 h of incubation, the absorbance was recorded at 595 nm on a FilterMax F5 Multi-Mode Microplate Reader (Molecular Devices, San Jose, CA, USA). […]
as §3, with “6.1 software (StatSoft Inc., Tulsa, OK, USA).” left out

F. oxysporum VKM F-137 = assay: Growth inhibition of F. oxysporum in microtiter plates; type: cell-based, Fusarium oxysporum; details: 300 µM peptide; spores in half-strength potato dextrose broth, 38 h, absorbance 595 nm; vs control without peptide; triplicate, mean
Method: as §1
(§6) The antimicrobial activity of synthetic peptides was tested against the yeasts Candida albicans VKM Y-2994 and Cryptococcus neoformans VKM Y-2755, the bacteria Pseudomonas savastanoi pv. savastanoi VKM B-1546, Pectobacterium carotovorum subsp. carotovorum VKM B-1247 and Clavibacter michiganensis subsp. michiganensis VKM Ac-1403, and four Fusarium species: F. culmorum VKM F-2303, F. oxysporum VKM F-137, F. solani VKM F-142 and F. verticillioides VKM F-670. All cultures were obtained from the All-Russian Collection of Microorganisms (VKM). […] The antimicrobial activity of the peptides was measured in immunoassay microtiter plates according to the protocol of Broekaert et al.. […]

F. solani VKM F-142 = assay: Growth inhibition of F. solani in microtiter plates; type: cell-based, Fusarium solani; details: 300 µM peptide; spores in half-strength potato dextrose broth, 38 h, absorbance 595 nm; vs control without peptide; triplicate, mean
Method: as §1, §6

F. culmorum VKM F-2303 = assay: Growth inhibition of F. culmorum in microtiter plates; type: cell-based, Fusarium culmorum; details: 300 µM peptide; spores in half-strength potato dextrose broth, 38 h, absorbance 595 nm; vs control without peptide; triplicate, mean
Method: as §1, §6

[9] = inhibition curves (Figure 4), highest tested concentration (300 µM)

| IC50 ([1]; peptide 10–300 µM, 30 °C, 24 h, absorbance 594 nm, from activity vs concentration graph, mean ± SD, read-out: IC50, μM Cr. neoformans) [µM] | IC50 ([2]; peptide 10–300 µM, 30 °C, 24 h, absorbance 594 nm, from activity vs concentration graph, mean ± SD) [µM] | IC50 [3] [µM] | IC50 ([4]; peptide 10–300 µM, 38 h, absorbance 595 nm, from activity vs concentration graph, mean ± SD) [µM] | Structure (SMILES) | Inhibition of Cr. neoformans at the highest tested concentration [1, 9] [%] | Inhibition of C. albicans at the highest tested concentration [2, 9] | Maximum inhibition of F. verticillioides at 150 µM ([4]; inhibition curves (Figure 4), peptide 150 µM) | Membrane permeabilization of Cr. neoformans cells (PI staining) (Cr. neoformans cells [5]) | Penetration of propidium iodide (PI) into Cr. neoformans cells (Cr. neoformans cells [6]; peptide 300 µM in water, PI 2 µg/mL, FL2 (488/585 nm)) [%] | Number of Cr. neoformans cells in flow cytometry (Cr. neoformans cells [6]; peptide 300 µM) | Membrane permeabilization of C. albicans cells (PI staining) (C. albicans cells) | Pathogen inhibition, % (P. carotovorum) [7] [%] | Inhibition of Cl. michiganensis at the highest tested concentration [8] [%] | Pathogen inhibition, % (F. verticillioides) ([4]; 300 µM peptide, spores in half-strength potato dextrose broth, 38 h, absorbance 595 nm, vs control without peptide, triplicate, mean) | Pathogen inhibition, % (F. oxysporum) (F. oxysporum VKM F-137) | Pathogen inhibition, % (F. solani) (F. solani VKM F-142) | Pathogen inhibition, % (F. culmorum) (F. culmorum VKM F-2303) |
| --- | --- | --- | --- | --- | --- | --- | --- | --- | --- | --- | --- | --- | --- | --- | --- | --- | --- |
| > 100 | > 100 | > 100 | > 100 | C[C@H](NC(=O)[C@H](CCCNC(=N)N)NC(=O)CNC(=O)[C@@H](NC(=O)[C@H](Cc1ccc(O)cc1)NC(=O)[C@@H]1CCCN1C(=O)[C@H](CCCNC(=N)N)NC(=O)CNC(=O)[C@H](CCCNC(=N)N)NC(=O)[C@H](C)NC(=O)[C@@H]1CCCN1C(=O)[C@@H](N)CS)[C@@H](C)O)C(=O)N[C@@H](CS)C(=O)O [DEFL4-37_90-102] (H-CPARGRPYTGRAC-OH; N-terminus and C-terminus assumed) | 100 | about 35% | about 35% | induced membrane permeabilization | 68.48 | reduction in the number of Cr. neoformans cells | induced membrane permeabilization | 36 |  |  |  |  |  |
|  |  |  |  | CC(C)C[C@H](NC(=O)[C@H](CCCNC(=N)N)NC(=O)[C@H](C)NC(=O)[C@H](CS)NC(=O)[C@H](CS)NC(=O)CNC(=O)[C@@H]1CCCN1)C(=O)N[C@@H](CCCNC(=N)N)C(=O)N[C@@H](C)C(=O)N[C@@H](CCC(N)=O)C(=O)N[C@@H](CCCNC(=N)N)C(=O)N[C@@H](C)C(=O)N[C@@H](CS)C(=O)O [TkLTP2.25_50-62] (H-PGCCARLRAQRAC-OH; N-terminus and C-terminus assumed) |  |  |  | induced membrane permeabilization |  |  | induced membrane permeabilization |  | 95 |  |  |  |  |
|  |  |  |  | CC[C@H](C)[C@H](NC(=O)[C@@H](NC(=O)[C@H](Cc1c[nH]cn1)NC(=O)[C@@H](NC(=O)[C@H](C)NC(=O)[C@@H](NC(=O)[C@H](CS)NC(=O)[C@H](CS)NC(=O)CNC(=O)[C@@H](N)CO)[C@@H](C)O)C(C)C)[C@@H](C)O)C(=O)NCC(=O)N[C@@H](CCCCN)C(=O)N[C@@H](CCC(N)=O)C(=O)N[C@@H](CO)C(=O)N1CCC[C@H]1C(=O)N[C@@H](CCCCN)C(=O)N[C@@H](CS)C(=O)O [TkLTPd5.6_59-75] (H-SGCCTAVHTIGKQSPKC-OH; N-terminus and C-terminus assumed) |  |  |  |  |  |  |  |  |  | inactive | inactive | inactive | inactive |
